Reference: ChEMBL document CHEMBL3817799, “N-Nitrosulfonamides: A new chemotype for carbonic anhydrase inhibition” (Bioorg Med Chem, 2016)

Columns and labels:
Carbonic anhydrase 9 = Carbonic anhydrase 9 (Homo sapiens, UniProt Q16790); test: Inhibition of human recombinant carbonic anhydrase 9 preincubated for 15 mins prior to testing by stopped flow CO2 hydrase assay
[1] = Inhibition of Malassezia globosa beta carbonic anhydrase preincubated for 15 mins prior to testing by stopped flow CO2 hydrase assay
Carbonic anhydrase 2 = Carbonic anhydrase 2 (Homo sapiens, UniProt P00918); test: Inhibition of human recombinant carbonic anhydrase 2 preincubated for 15 mins prior to testing by stopped flow CO2 hydrase assay
Malassezia globosa = test: Potency index, ratio of acetazolamide Ki to compound Ki for Malassezia globosa beta carbonic anhydrase

Structure (SMILES) | Ki (Carbonic anhydrase 9) | Ki [1] | Ki (Carbonic anhydrase 2) | Ratio Ki (Malassezia globosa)
NCc1ccc(S(=O)(=O)N[N+](=O)[O-])cc1 | 5.99 µM | 8.09 µM | – | –
CC(=O)Nc1nnc(S(N)(=O)=O)s1 [ACETAZOLAMIDE] | – | 74 µM | – | –
Nc1nnc(S(=O)(=O)N[N+](=O)[O-])s1 | 0.84 µM | 4.5 µM | 4.52 µM | 10
Nc1cccc(S(=O)(=O)N[N+](=O)[O-])c1 | > 50 µM | 2.75 µM | 5.11 µM | 10
CN(C)c1ccc(S(=O)(=O)N[N+](=O)[O-])cc1 | – | 0.22 µM | > 50 µM | 10
N#CCNc1ccc(S(=O)(=O)N[N+](=O)[O-])cc1 | 2 µM | 3.49 µM | 1.35 µM | 10
